# Results from PubChem BioAssay AID1259333 (Broad Institute, 2017).
# Activity calls are given as the source filed them. How the calls were made is not given here; tested in parental BL2 cells.
# Test system: cytotoxicity, CellTiter-Glo ATP luminescence
# Assay: cell cytotoxicity, dose response, cytotoxicity control, CellTiter-Glo (AID 1259333)
row,SMILES,AC50
1,NS(=O)(=O)c1cc2c(cc1C(F)(F)F)NC(Cc1ccccc1)NS2(=O)=O (centres undefined),> 20 µM (inactive)
2,C[C@@H]1CN([C@@H](C)CO)C(=O)c2c(c3ccccc3n2C)-c2ccccc2CO[C@H]1CN(C)C(=O)Nc1cccc(C(F)(F)F)c1,1.4 µM
3,NCCOc1ccc(C23CC4CC(CC(C4)C2)C3)cc1,4.9 µM
4,CN(C)c1ccc(C(=C2C=CC(=[N+](C)C)C=C2)c2ccc(N(C)C)cc2)cc1,0.492 µM
5,COc1ccc(CN(CCC(c2ccccc2)c2ccc(OC(C)C)cc2)C(=O)CCl)cc1OC (centres undefined),2.54 µM
6,N#C[C@@H]1[C@H](c2ccc(C#CC3CCCCC3)cc2)[C@@H](CO)N1C(=O)Nc1ccc(F)cc1,> 20 µM (inactive)
7,COC(=O)c1nn(-c2ccc(-c3ccccc3)cc2)cc1O,> 20 µM (inactive)
8,COc1cccc(-c2cc(=O)c3cc(OC)ccc3o2)c1,10.3 µM
9,Cc1cc(C(=O)COC(=O)c2ccco2)c(C)n1Cc1ccco1,> 20 µM (inactive)
10,Cc1c(CCOC(=O)CC23CC4CC(CC(C)(C4)C2)C3)sc[n+]1CC(=O)c1ccccc1,5.88 µM
11,O=C1NC2c3c(I)sc(I)c3C(=O)C2O1 (centres undefined),6.34 µM
12,C[C@@H]1CCCCO[C@H](CN(C)Cc2ccc(C(F)(F)F)cc2)[C@@H](C)CN([C@@H](C)CO)C(=O)c2cc(NC(=O)Nc3cccc4ccccc34)ccc2O1,10.7 µM
13,c1ccc2nc(-c3nc4ccccc4o3)ccc2c1,> 20 µM (inactive)
14,CC(=O)OC1CC2(O)C3CCC4CC(O)CCC4(C)C3CCC2(C)C1C1=CC(=O)OC1 (centres undefined),0.559 µM
15,COC(=O)c1ccc2nc(NC(=O)C(C)(C)C)sc2c1,7.83 µM
16,c1cc(-c2cnn3cc(-c4ccc(OCCN5CCCCC5)cc4)cnc23)ccn1,1.44 µM
17,CC[C@@]1(O)C(=O)OCc2c1cc1n(c2=O)Cc2cc3ccccc3nc2-1,9.41 µM
18,O=C1C=CC2C3C(=O)N(c4ccccc4)C(=O)C3C1N2Cc1ccccc1 (centres undefined),8.98 µM
19,N#C[C@H]1[C@H](c2ccc(C#Cc3ccccc3F)cc2)[C@@H](CO)N1C(=O)c1cccnc1,11.2 µM
20,C[C@H](CO)N1C[C@H](C)[C@H](CN(C)S(=O)(=O)c2ccc([N+](=O)[O-])cc2)OCc2ccccc2-c2c(n(C)c3ccccc23)C1=O,> 20 µM (inactive)
21,Cn1cc(C2=C(c3cn(CCCSC(=N)N)c4ccccc34)C(=O)NC2=O)c2ccccc21,0.388 µM

row,SMILES,AC50
1,COCCn1c(C)cc(C(=O)COC(=O)c2ccc(Cl)c(S(N)(=O)=O)c2)c1C,3.01 µM
2,CC1OC(OC2CC(O)C3(CO)C4C(O)CC5(C)C(C6=CC(=O)OC6)CCC5(O)C4CCC3(O)C2)C(O)C(O)C1O (centres undefined),0.236 µM
3,C[C@@H]1CCCCO[C@@H](CN(C)Cc2ccc(Cl)c(Cl)c2)[C@H](C)CN([C@H](C)CO)C(=O)c2cc(NS(=O)(=O)c3cccs3)ccc2O1,8.68 µM
4,C[C@H]1CN([C@@H](C)CO)C(=O)c2c(c3ccccc3n2C)-c2ccccc2CO[C@@H]1CN(C)C(=O)Nc1ccccc1C(F)(F)F,> 20 µM (inactive)
5,Fc1ccccc1CNCCC(Cc1ccccc1)c1ccc2c(c1)OCO2 (centres undefined),> 20 µM (inactive)
6,Cc1noc(C)c1S(=O)(=O)Nc1ccc2c(c1)C(=O)N([C@H](C)CO)C[C@H](C)[C@@H](CN(C)C(=O)Nc1cccc3ccccc13)OCCCC[C@H](C)O2,> 20 µM (inactive)
7,COc1ccc(-c2cc(-c3ccccc3)c(C#N)c(S(C)=O)n2)cc1 (centres undefined),3 µM
8,O=C(Nc1ccc([N+](=O)[O-])cc1Cl)c1cc(Cl)ccc1O,> 7 µM (inactive)
9,CCN(CC)c1ccc(C(NC(=O)C(C)C)c2ccc3cccnc3c2O)cc1 (centres undefined),9.15 µM
10,N#C[C@H]1[C@@H](c2ccc(C#CC3CCCCC3)cc2)[C@@H](CO)N1C(=O)Nc1ccc(F)cc1,> 20 µM (inactive)
11,COc1ccc(S(=O)(=O)Nc2ccc3c(c2)C(=O)N([C@@H](C)CO)C[C@H](C)[C@H](CN(C)Cc2ccc(C(F)(F)F)cc2)OCCCC[C@H](C)O3)cc1,> 20 µM (inactive)
12,COc1ccc(CC2C(=O)NC(C)C(=O)N(C)C3C(=O)N(C)C(Cc4ccc(O)c(c4)Oc4ccc(cc4)C3O)C(=O)NC(C)C(=O)NC(C)C(=O)N2C)cc1 (centres undefined),8.5 µM
13,Cc1cc(OCC(=O)OCC(=O)NCc2ccco2)ccc1Cl,2.21 µM
14,CCN1/C(=C/c2sc(-c3ccccc3C)c[n+]2C)Sc2ccccc21,9.06 µM
15,C[C@@H]1CN([C@H](C)CO)C(=O)c2c(c3ccccc3n2C)-c2ccccc2CO[C@H]1CN(C)Cc1cccc(C(F)(F)F)c1,> 20 µM (inactive)
16,C[C@H]1CN([C@@H](C)CO)C(=O)c2c(c3ccccc3n2C)-c2ccccc2CO[C@H]1CN(C)C(=O)Nc1cccc(C(F)(F)F)c1,0.878 µM
17,CCSc1ccc(-c2cc(NC=O)c3ncc(-c4cccc(C(=O)N(C)C)c4)n3c2)cc1,> 20 µM (inactive)
18,N#C[C@@H]1[C@H](c2ccc(C#CC3CCCCC3)cc2)[C@H](CO)N1C(=O)Nc1ccc(F)cc1,> 20 µM (inactive)
19,C[C@H]1CN([C@@H](C)CO)C(=O)c2ccccc2-c2ccccc2CO[C@H]1CN(C)Cc1ccc(Oc2ccccc2)cc1,> 20 µM (inactive)
20,O=C1c2c(O)ccc(O)c2C(=O)c2c(NCCNCCO)ccc(NCCNCCO)c21,5.78 µM
21,COc1ccc(CNCCC(c2ccc(F)cc2)c2ccc(OC(C)C)cc2)cc1OC (centres undefined),5.85 µM

row,SMILES,AC50
1,NC(c1csc(NC(=O)Nc2cccc(Cl)c2)n1)c1ccccc1Cl (centres undefined),> 20 µM (inactive)
2,COc1ccc2c3c(n(C)c2c1)[C@H](CO)N(C(C)=O)CC31CN(Cc2ccc(Cl)cc2)C1,> 20 µM (inactive)
3,c1ccc(-c2nc(-c3ccccn3)no2)cc1,11.5 µM
4,C=C1CC(Cn2cc(Br)c(=O)[nH]c2=O)(c2ccc(-c3ccccc3)cc2)OC1=O (centres undefined),6.59 µM
5,CC(C)Cc1ccc(C(C)CC2=CCC(CN(C)C)C2=O)cc1 (centres undefined),3.42 µM
6,COc1ccc(/C=C2/CCC(CN3CCOCC3)C2=O)cc1 (centres undefined),7.4 µM
7,CC(NCC(O)COCCC12CC3CC(CC(C3)C1)C2)c1ccccc1 (centres undefined),6.49 µM
8,CCCCCCCCCCCCCCCC[n+]1ccccc1,1.55 µM
9,C[C@H](CO)N1C[C@H](C)[C@@H](CN(C)Cc2cccc(C(F)(F)F)c2)OCc2ccccc2-c2c(n(C)c3ccccc23)C1=O,6.4 µM
10,COc1ccc(/C=C\c2nc(=O)c3ccccc3o2)cc1,6.79 µM
11,CC(C)NC(=O)N1CC(=O)N2[C@H](CO)[C@@H](c3ccc(/C=C/c4ccccc4)cc3)[C@H]2C1,> 20 µM (inactive)
12,CC[N+]1(C)CCC(O)(c2ccc(OC)cc2)C(C(=O)c2ccc(OC)cc2)C1 (centres undefined),5.1 µM
13,CC(C)CCCCCCCCCCCCC(=O)NCC(=O)NC1C(O)C(O)C(Nc2ncnc3nc[nH]c23)OC1C(O)CO (centres undefined),9.02 µM
14,COCC(C)n1c(C)cc(C(=O)COC(=O)c2cccn2C)c1C (centres undefined),> 7 µM (inactive)
15,C[C@H]1O[C@@H](O[C@H]2[C@@H](O)C[C@H](O[C@H]3[C@@H](O)C[C@H](O[C@H]4CC[C@]5(C)C6C[C@@H](O)[C@]7(C)[C@@H](C8=CC(=O)OC8)CC[C@]7(O)C6CC[C@@H]5C4)O[C@@H]3C)O[C@@H]2C)C[C@H](O)[C@@H]1O (some centres undefined),2.71 µM
16,CC(=O)OC1C(=O)OCC23CCC4(C)OC4C2OC2CC(OC(=O)C=CC=CC(=O)OCCC1C)C3(C)C21CO1 (centres undefined),> 7 µM (inactive)
17,CC(C(=O)O)c1ccc(N2Cc3ccccc3C2=O)cc1 (centres undefined),9.56 µM
18,CC1=NNC(=O)C1Br (centres undefined),9.62 µM
19,CC(C)(C)OC(=O)CC(S(=O)(=O)c1ccccc1)S(=O)(=O)c1ccccc1,6.37 µM
20,O=C(Cc1ccccc1)N1CC[C@@H]2[C@H]1c1cc(C#Cc3cccc(F)c3)ccc1N[C@@H]2CO,10.8 µM
21,Nc1cccc2nc3ccccc3cc12,1.96 µM

row,SMILES,AC50
1,NC(=O)c1c(Br)n(C2OC(CO)C(O)C2O)c2ncnc(N)c12 (centres undefined),3.14 µM
2,CCN(CC)C(=O)c1ccc(NC(=O)Nc2ccccc2F)cc1,3.45 µM
3,COc1cc2cc(C(=O)N3CC(COS(C)(=O)=O)c4ccc(O)cc43)[nH]c2c(OC)c1OC (centres undefined),0.276 µM
4,O=C(c1ccc(-c2ccc([N+](=O)[O-])cc2)o1)N1CCCC(C(F)(F)F)C1 (centres undefined),> 20 µM (inactive)
5,C[C@@H]1CN([C@@H](C)CO)C(=O)c2ccccc2-c2ccccc2CO[C@@H]1CN(C)Cc1ccc(Oc2ccccc2)cc1,8.71 µM
6,Cc1ccc(CN2CC(C(=O)Nc3ncc(C)s3)CC2=O)cc1 (centres undefined),> 20 µM (inactive)
7,CC(C)OC(=O)c1cn(Cc2c(F)cccc2F)c2sc(-c3ccc(NC(=O)C(C)C)cc3)c(CN(C)Cc3ccccc3)c2c1=O,> 20 µM (inactive)
8,Cc1cc(C)nc(Sc2ncnc(N)c2[N+](=O)[O-])n1,> 20 µM (inactive)
9,CCS(=O)(=O)N1Cc2ccccc2CC1C(=O)Nc1nc2ccccc2s1 (centres undefined),5.74 µM
10,C[C@H]1O[C@@H](O[C@H]2[C@@H](O)C[C@H](O[C@H]3[C@@H](O)C[C@H](O[C@H]4CC[C@]5(C)C6CC[C@]7(C)[C@@H](C8=CC(=O)OC8)CC[C@]7(O)C6CC[C@@H]5C4)O[C@@H]3C)O[C@@H]2C)C[C@H](O)[C@@H]1O (some centres undefined),2.2 µM
11,C[C@@H]1O[C@@H](O[C@H]2C[C@@H](O)[C@]3(CO)C4C(CC[C@]3(O)C2)[C@@]2(O)CC[C@H](C3=CC(=O)OC3)[C@@]2(C)C[C@H]4O)[C@H](O)[C@H](O)[C@H]1O (some centres undefined),0.379 µM
12,COC(=O)C12OCC34C(CC5C(C)=C(O)C(=O)CC5(C)C3C(O)C1O)OC(=O)C(OC(=O)C=C(C)C)C24 (centres undefined),3.11 µM
13,C[C@@H]1O[C@@H](O[C@H]2C[C@@H](O)[C@]3(CO)[C@H]4[C@H](O)C[C@]5(C)[C@@H](C6COC(=O)C6)CC[C@]5(O)[C@@H]4CC[C@]3(O)C2)[C@H](O)[C@H](O)[C@H]1O (some centres undefined),1.87 µM
14,C[C@H]1CN([C@@H](C)CO)C(=O)c2ccccc2-c2ccccc2CO[C@@H]1CN(C)Cc1ccccc1C(F)(F)F,10.5 µM
15,C1CCC(C(CC2CCCCN2)C2CCCCC2)CC1 (centres undefined),2.37 µM
16,N#C[C@@H]1[C@H](c2ccc(C#CC3CCCC3)cc2)[C@H](CO)N1C(=O)Cc1ccccn1,> 20 µM (inactive)
17,C[C@@H]1CC=CC[C@H](c2ccc(F)cc2)NC(=O)[C@@H](Cc2ccccc2)N(C)C(=O)c2ccccc2O1 (mixture of isomers),> 20 µM (inactive)
18,CC(=O)OCC12CC(OC(=O)CC(C)C)C(C)=CC1OC1C(O)C(OC(C)=O)C2(C)C12CO2 (centres undefined),3.67 µM
19,COc1ccc(NC(=O)O/N=C/c2c(C)nn(C(C)(C)C)c2C)cc1,7.85 µM
20,Cc1ccc(OCCn2cnc3c(N)ncnc32)cc1,> 20 µM (inactive)
21,C[C@@H]1CN([C@@H](C)CO)C(=O)c2c(c3ccccc3n2C)-c2ccccc2CO[C@H]1CN(C)S(=O)(=O)c1ccc([N+](=O)[O-])cc1,> 20 µM (inactive)
